The results in this text go back to patent US6087390A, “Derivatives of antifungal substance BE-31405 and process for producing the same” (Banyu Pharmaceutical Co., Ltd., priority 1997, dated 2000).

Usually MIC stands for the smallest concentration in the dilution series that meets the test's criterion for growth inhibition.

In brackets after ≈: the same amount, converted by molar mass.

In the first assay the test system is Candida albicans IFO1385. As to the kind of experiment: Antifungal activity: MIC against Candida albicans IFO1385 on yeast nitrogen base agar. Particulars: 48 h; 2 days of incubation at 37° C., yeast nitrogen base agar with 1% glucose and 0.25% dipotassium hydrogen phosphate; single use; read-out: MIC. It counts as cell-based.
Description: ^b MICs were determined against Candida albicans IFO1385 after 2 days
of incubation of the test strain at 37° C. on yeastnitrogen base
agar (containing 1% glucose and 0.25% dipotassium hydrogen phosphate,
Take `CCCCC(=O)OC1C2OC3(OCC45CC6C(C)CCC6C6(C=O)CC4C=C(C(C)C)C65C(=O)O)OC2OC1C3O` (stereo not drawn) [Compound 10, 8a-[[[6-(n-valeryloxy)tetrahydro-7-hydroxy-2,5-methanofuro[2,3-d]-1,3-dioxol-2-yl]oxy]methyl]-4-formyl-4,4a,5,6,7,7a,8,8a-octahydro-7-methyl-3-(1-methylethyl)-1,4-methano-s-indacene-3a(1H)-carboxylic acid]: the minimum inhibitory concentration (MIC) turned out to be 6.25 µg/mL (≈ 10.9 µM).

On to `CCCCCC(=O)OC1C2OC3(OCC45CC6C(C)CCC6C6(C=O)CC4C=C(C(C)C)C65C(=O)O)OC2OC1C3O` (stereo not drawn) [Compound 13, 8a-[[[6-(n-hexanoyloxy)tetrahydro-7-hydroxy-2,5-methanofuro[2,3-d]-1,3-dioxol-2-yl]oxy]methyl]-4-formyl-4,4a,5,6,7,7a,8,8a-octahydro-7-methyl-3-(1-methylethyl)-1,4-methano-s-indacene-3a(1H)-carboxylic acid], for which the MIC was 3.13 µg/mL (≈ 5.32 µM).

Consider `CCCCCCC(=O)OC1C2OC3(OCC45CC6C(C)CCC6C6(C=O)CC4C=C(C(C)C)C65C(=O)O)OC2OC1C3O` (stereo not drawn) [Compound 14, 8a-[[[6-(n-heptanoyloxy)tetrahydro-7-hydroxy-2,5-methanofuro[2,3-d]-1,3-dioxol-2-yl]oxy]methyl]-4-formyl-4,4a,5,6,7,7a,8,8a-octahydro-7-methyl-3-(1-methylethyl)-1,4-methano-s-indacene-3a(1H)-carboxylic acid], for which the MIC was 1.56 µg/mL (≈ 2.59 µM).

As to `CCCCOC1C2OC3(OCC45CC6C(C)CCC6C6(C=O)CC4C=C(C(C)C)C65C(=O)O)OC2OC1C3O` (stereo not drawn) [Compound 38, 8a-[[[6-(butoxy)tetrahydro-7-hydroxy-2,5-methanofuro[2,3-d]-1,3-dioxol-2-yl]oxy]methyl]-4-formyl-4,4a,5,6,7,7a,8,8a-octahydro-7-methyl-3-(1-methylethyl)-1,4-methano-s-indacene-3a(1H)-carboxylic acid], the minimal inhibitory concentration (MIC) was 3.13 µg/mL (≈ 5.73 µM).

`CCCCCOC1C2OC3(OCC45CC6C(C)CCC6C6(C=O)CC4C=C(C(C)C)C65C(=O)O)OC2OC1C3O` (stereo not drawn) [Compound 41, 8a-[[[6-(pentyloxy)tetrahydro-7-hydroxy-2,5-methanofuro[2,3-d]-1,3-dioxol-2-yl]oxy]methyl]-4-formyl-4,4a,5,6,7,7a,8,8a-octahydro-7-methyl-3-(1-methylethyl)-1,4-methano-s-indacene-3a(1H)-carboxylic acid]: the minimal inhibitory concentration (MIC) is 1.56 µg/mL (≈ 2.78 µM).

Turning to `CC(C)CCOC1C2OC3(OCC45CC6C(C)CCC6C6(C=O)CC4C=C(C(C)C)C65C(=O)O)OC2OC1C3O` (stereo not drawn) [Compound 44, 8a-[[[6-(isopentyloxy)tetrahydro-7-hydroxy-2,5-methanofuro[2,3-d]-1,3-dioxol-2-yl]oxy]methyl]-4-formyl-4,4a,5,6,7,7a,8,8a-octahydro-7-methyl-3-(1-methylethyl)-1,4-methano-s-indacene-3a(1H)-carboxylic acid], the minimum inhibitory concentration (MIC) turned out to be 3.13 µg/mL (≈ 5.58 µM).

Regarding `CCCCCCOC1C2OC3(OCC45CC6C(C)CCC6C6(C=O)CC4C=C(C(C)C)C65C(=O)O)OC2OC1C3O` (stereo not drawn) [Compound 47, 8a-[[[6-(hexyloxy)tetrahydro-7-hydroxy-2,5-methanofuro[2,3-d]-1,3-dioxol-2-yl]oxy]methyl]-4-formyl-4,4a,5,6,7,7a,8,8a-octahydro-7-methyl-3-(1-methylethyl)-1,4-methano-s-indacene-3a(1H)-carboxylic acid], the MIC came to 1.56 µg/mL (≈ 2.71 µM).

Consider `CCCCCCCCCCOC1C2OC3(OCC45CC6C(C)CCC6C6(C=O)CC4C=C(C(C)C)C65C(=O)O)OC2OC1C3O` (stereo not drawn) [Compound 50, 8a-[[[6-(decyloxy)tetrahydro-7-hydroxy-2,5-methanofuro[2,3-d]-1,3-dioxol-2-yl]oxy]methyl]-4-formyl-4,4a,5,6,7,7a,8,8a-octahydro-7-methyl-3-(1-methylethyl)-1,4-methano-s-indacene-3a(1H)-carboxylic acid], for which the MIC is 3.13 µg/mL (≈ 4.96 µM).

The same assay, now with this note: 2 days of incubation at 37° C., yeast nitrogen base agar with 1% glucose and 0.25% dipotassium hydrogen phosphate; single use.
In turn, `CC(=O)O[C@@H]1[C@@H]2O[C@@]3(OC[C@@]45C[C@@H]6[C@H](C)CC[C@H]6[C@@]6(C=O)C[C@@H]4C=C(C(C)C)[C@@]56C(=O)O)O[C@@H]2O[C@@H]1[C@@H]3O` [BE-31405] had a minimum inhibitory concentration (MIC) of 50 µg/mL (≈ 93.9 µM).

On to `COC1C2OC3(OCC45CC6C(C)CCC6C6(C=O)CC4C=C(C(C)C)C65C(=O)O)OC2OC1C3O` (stereo not drawn) [SCH57404 (xylarin), reference compound], for which the MIC came to 100 µg/mL (≈ 198 µM).

The subject of another assay is a certain kind of fungus.
Assay: not given
Particulars: in vitro, acidic conditions.
Regarding `CC(=O)O[C@@H]1[C@@H]2O[C@@]3(OC[C@@]45C[C@@H]6[C@H](C)CC[C@H]6[C@@]6(C=O)C[C@@H]4C=C(C(C)C)[C@@]56C(=O)O)O[C@@H]2O[C@@H]1[C@@H]3O` [BE-31405], the “growth inhibitory (antifungal) activity under acidic conditions” value is “shows growth inhibitory activity against a certain kind of fungus in vitro especially under acidic conditions”.

The same assay, now with this note: neutral conditions.
As for `CC(=O)O[C@@H]1[C@@H]2O[C@@]3(OC[C@@]45C[C@@H]6[C@H](C)CC[C@H]6[C@@]6(C=O)C[C@@H]4C=C(C(C)C)[C@@]56C(=O)O)O[C@@H]2O[C@@H]1[C@@H]3O` [BE-31405], the “antifungal activity under neutral conditions” value is “the activity remarkably lowers under neutral conditions”.
